Measurements: patent publication US12624057B2, “Bisphosphonate quinolone conjugates and uses thereof” (BIOVINC, LLC, priority 2016, dated 2026)
“Also recorded” adds a separate entry of the source. Like-named read-outs stand apart in the source and are kept apart here.

Experiments:
[1] = tested on: S. aureus strain ATCC-6538 (MSSA) and clinical MRSA strain MR4-CIPS; assay: Time-kill assay (CLSI); type: cell-based, Staphylococcus aureus; conditions: for time-kill profile (in words): 1× and ½× MIC, 24 hrs
Experimental: Time-kill assay for BP-ciprofloxacin conjugate against S. aureus strain ATCC-6538 (MSSA) and clinical MRSA strain MR4-CIPS: This experiment was performed in the same manner as described previously under the subheading: “Evaluation of MIC of tested compounds against planktonic forms of clinical staphylococcal strains analyzed”, but absorbance assays (at 580 nm wavelength) were taken in hour: 0, 1, 2, 4, 8, 16, 24.

[2] = tested on: biofilms of S. aureus strain ATCC-6538; assay: Preformed biofilms on polystyrene, S. aureus; type: cell-based, Staphylococcus aureus
Experimental: (§1) Antimicrobial susceptibility testing of BP-ciprofloxacin against preformed biofilms of S. aureus strain ATCC-6538 and P. aeruginosa strain ATCC-15442: Strains cultured on appropriate agar plates (Columbia agar plate for S. aureus; MacConkey agar plate for P. aeruginosa) were transferred to liquid microbiological media and incubated for 24 h/37° C. under aerobic conditions. After incubation, strains were diluted to the density of 1 MF. The microbial dilutions were introduced to wells of 24-well plates containing HA discs as a substrate, or simply to polystyrene wells where the bottom surface of the wells served as the substrate for biofilm development. Strains were incubated at 37° C. for 4 hrs. Next, the microbe-containing solutions were removed from the wells. The surfaces, HA discs and polystyrene plates, were gently rinsed to leave adhered cells and to remove planktonic or loosely-bound microbes. Surfaces prepared in this manner were immersed in fresh TSB medium containing 0.24-125 mg/L of BP-ciprofloxacin conjugate. After 24 hrs of incubation at 37° C. the surfaces were rinsed using physiological saline solution and transferred to 1 mL of 0.5% saponin (Sigma-Aldrich, St Louis, MO). The surfaces were vortex-mixed vigorously for 1 minute to detach cells. Subsequently, all microbial suspensions were diluted 10 to 10^9 times. Each dilution ([…]) was cultured on the appropriate stable medium (MacConkey, Columbia for P. aeruginosa and S. aureus, respectively) and incubated at 37-C for 24 hours. After this time, the microbial colonies were counted and the number of cells forming biofilm was assessed. […]
(§2) Antimicrobial susceptibility testing of 6 against preformed biofilms of S. aureus strain ATCC-6538 and P. aeruginosa strain ATCC-15442: Strains cultured on appropriate agar plates (Columbia agar plate for S. aureus; MacConkey agar plate for P. aeruginosa) were transferred to liquid microbiological media and incubated for 24 hrs/37° C. under aerobic conditions. […] After this time, the microbial colonies were counted and the number of cells forming biofilm was assessed. […]

[3] = tested on: biofilms of P. aeruginosa strain ATCC-15442; assay: Preformed biofilms on polystyrene, P. aeruginosa; type: cell-based, Pseudomonas aeruginosa; conditions: polystyrene substrate, tested range of concentrations
Experimental: as §1, §2

[4] = tested on: biofilms of P. aeruginosa strain ATCC-15442; assay: Preformed biofilms on HA discs, P. aeruginosa; type: cell-based, Pseudomonas aeruginosa
Experimental: Antimicrobial susceptibility testing of BP-ciprofloxacin against preformed biofilms of S. aureus strain ATCC-6538 and P. aeruginosa strain ATCC-15442: Strains cultured on appropriate agar plates (Columbia agar plate for S. aureus; MacConkey agar plate for P. aeruginosa) were transferred to liquid microbiological media and incubated for 24 h/37° C. under aerobic conditions. After incubation, strains were diluted to the density of 1 MF. The microbial dilutions were introduced to wells of 24-well plates containing HA discs as a substrate, or simply to polystyrene wells where the bottom surface of the wells served as the substrate for biofilm development. Strains were incubated at 37° C. for 4 hrs. Next, the microbe-containing solutions were removed from the wells. The surfaces, HA discs and polystyrene plates, were gently rinsed to leave adhered cells and to remove planktonic or loosely-bound microbes. Surfaces prepared in this manner were immersed in fresh TSB medium containing 0.24-125 mg/L of BP-ciprofloxacin conjugate. After 24 hrs of incubation at 37° C. the surfaces were rinsed using physiological saline solution and transferred to 1 mL of 0.5% saponin (Sigma-Aldrich, St Louis, MO). The surfaces were vortex-mixed vigorously for 1 minute to detach cells. Subsequently, all microbial suspensions were diluted 10 to 10^9 times. Each dilution ([…]) was cultured on the appropriate stable medium (MacConkey, Columbia for P. aeruginosa and S. aureus, respectively) and incubated at 37-C for 24 hours. After this time, the microbial colonies were counted and the number of cells forming biofilm was assessed. Results were presented as the mean number of CFU per square millimeter surface±standard error of the mean. To estimate the exact surface area of HA discs, x-ray tomographic analysis was applied. For estimation of the area of test plate bottoms, the equation for circle area: πr2 was applied.
Antimicrobial susceptibility testing of 6 against preformed biofilms of S. aureus strain ATCC-6538 and P. aeruginosa strain ATCC-15442: Strains cultured on appropriate agar plates (Columbia agar plate for S. aureus; MacConkey agar plate for P. aeruginosa) were transferred to liquid microbiological media and incubated for 24 hrs/37° C. under aerobic conditions. After incubation, strains were diluted to the density of 1 MF. The microbial dilutions were introduced to wells of 24-well plates containing HA discs as a substrate, or simply to polystyrene wells where the bottom surface of the wells served as the substrate for biofilm development. Strains were incubated at 37° C. for 4 hrs. Next, the microbe-containing solutions were removed from the wells. The surfaces, HA discs and polystyrene plates, were gently rinsed to leave adhered cells and to remove planktonic or loosely-bound microbes. […] After 24 hrs of incubation at 37° C. the surfaces were rinsed using physiological saline solution and transferred to 1 mL of 0.5% saponin (Sigma-Aldrich, St Louis, MO). The surfaces were vortex-mixed vigorously for 1 minute to detach cells. Subsequently, all microbial suspensions were diluted 10-1 to 10-9 times. Each dilution ([…]) was cultured on the appropriate stable medium (MacConkey, Columbia for P. aeruginosa and S. aureus, respectively) and incubated at 37° C. for 24 hrs. After this time, the microbial colonies were counted and the number of cells forming biofilm was assessed. Results were presented as the mean number of CFU per square millimeter surface±standard error of the mean. […]

[5] = 24 h
Experimental: Next, solutions were left for 24 h/37° C./shaking. After incubation, absorbance was measured once again. To assess for degradation of conjugate, values of absorbance taken at 0 hr and 24 hrs were compared.

[6] = tested on: Aggregatibacter actinomycetemcomitans (Aa; wild-type rough strain D7S-1; serotype a); assay: Disc diffusion inhibition zone assay on Aa; type: cell-based
Source text: Since this BP-ciprofloxacin conjugate is novel and has not been tested in vivo, we performed an initial safety and efficacy study in an animal model of peri-implant osteomyelitis. This model is a unique in-house jawbone peri-implant osteomyelitis model that was developed specifically for translational value to study biofilm-mediated disease and host response in vivo (Freire, et al, Development of animal model for Aggregatibacter actinomycetemcomitans biofilm-mediated oral osteolytic infection: a preliminary study. J Periodontol 2011; 82:778-89). […] After biofilms are established on the implants in vitro, they are surgically transferred to the jawbone of each rat. Animals are anesthetized, the cheeks are retracted and a transmucosal osteotomy is performed so implants can be manually inserted into the osteotomy and secured. Two biofilm-inoculated implants are placed in each rat (n=12 rats and 24 implants) in the palatal bone bilaterally.
Next, inhibition zones were recorded using a ruler.
After biofilms were established on the implants in vitro, they were surgically transferred to the jawbone of each rat. For surgery, animals were anesthetized with 4% isoflurane inhalant initially followed by intraperitoneal injection of ketamine (80-90 mg/kg) plus xylazine (5-10 mg/kg). Then local anesthesia was given via infiltration injection of bupivicaine 0.25% at the surgical site. […]

| Structure (SMILES) | time-kill profile (in words) [1] | time-kill profile (in words) ([1]; listed as BP-ciprofloxacin) | time to bactericidal activity / evident prevention of growth ([1]; at half the MIC) | growth inhibition ([1]; at half the MIC, up to/after 24 hrs, versus controls) | time to bactericidal activity / evident prevention of growth ([1]; at half the MIC, listed as conjugate) | time to bactericidal activity ([1]; at the established MIC) | prevention of bacterial growth ([1]; at the established MIC, up to 24 hrs) | minimal biofilm inhibitory concentration (MBIC50) ([2]; polystyrene substrate (Example 1)) | minimal biofilm inhibitory concentration (MBIC50) ([2]; polystyrene substrate (Example 5)) | MBIC90 ([2]; polystyrene substrate, tested range of concentrations) | MBIC50 [3] | MBIC90 [3] | MBIC50 ([3]; listed as BP-ciprofloxacin) | concentration at which bactericidal ([4]; acidic and basic conditions (Example 1)) | concentration at which bactericidal ([4]; acidic and physiological conditions (Example 5)) | activity against P. aeruginosa biofilm (in words) ([4]; listed as conjugate) | concentration at which most effective ([4]; physiological pH, also effective at acidic pH) | stability in trypticase soy broth microbiological media [5] | activity against P. aeruginosa biofilm (in words) [4] | disc diffusion inhibition zone diameters [6] |
| --- | --- | --- | --- | --- | --- | --- | --- | --- | --- | --- | --- | --- | --- | --- | --- | --- | --- | --- | --- | --- |
| O=C(O)c1cn(C2CC2)c2cc(N3CCN(C(=O)Oc4ccc(CC(P(=O)(O)O)P(=O)(O)O)cc4)CC3)c(F)cc2c1=O [Compound 6, 1-cyclopropyl-7-(4-((4-(2,2-diphosphonoethyl)phenoxy)carbonyl)piperazin-1-yl)-6-fluoro-4-oxo-1,4-dihydroquinoline-3-carboxylic acid] | sustained bactericidal activity over 24 hrs | strong bactericidal activity at 1 hr and up to 24 hrs | 2 h | 50% | ≤ 1 h | ≤ 1 h | 100% | 15.6 to 31.2 µg/mL | 15.6 to 31.2 µg/mL | no MBIC90 was observed for either pathogen | No MBIC50 was observed | no MBIC90 was observed for either pathogen | no MBIC^50 was observed | 50 µg/mL | 50 µg/mL | improved bactericidal activity in basic conditions; also recorded: improved bactericidal activity in physiological conditions | 8 µg/mL | no degradation is observed after 24 hrs | – | – |
| O=C(O)c1cn(C2CC2)c2cc(N3CCNCC3)c(F)cc2c1=O [ciprofloxacin, reference compound] | – | – | – | – | – | – | – | – | – | – | – | – | – | – | – | – | – | – | no inhibitory or bactericidal activity; also recorded: inactive under either acidic or physiological conditions | > 40 mm |
